Key:
Type in all cases: cell membranes
Cannabinoid receptor 1 [1] = target: T1, Cannabinoid receptor 1 (Rattus norvegicus, UniProt P20272); assay: Binding affinity towards cannabinoid CB1 receptor in rat brain membrane by displacement of [3H]SR-141,716A
[2] = target: Cannabinoid receptor 1 (Rattus norvegicus) (UniProt P20272); assay: Binding affinity towards CB1 receptor in rat brain membrane by displacement of [3H]SR-141,716A relative to HU-210
Cannabinoid receptor 1 [3] = target: T1, Cannabinoid receptor 1; assay: Binding affinity towards cannabinoid CB1 receptor in rat brain membrane by displacement of [3H]SR-141,716A at 50 uM

T1 sequence (P20272 whole entry): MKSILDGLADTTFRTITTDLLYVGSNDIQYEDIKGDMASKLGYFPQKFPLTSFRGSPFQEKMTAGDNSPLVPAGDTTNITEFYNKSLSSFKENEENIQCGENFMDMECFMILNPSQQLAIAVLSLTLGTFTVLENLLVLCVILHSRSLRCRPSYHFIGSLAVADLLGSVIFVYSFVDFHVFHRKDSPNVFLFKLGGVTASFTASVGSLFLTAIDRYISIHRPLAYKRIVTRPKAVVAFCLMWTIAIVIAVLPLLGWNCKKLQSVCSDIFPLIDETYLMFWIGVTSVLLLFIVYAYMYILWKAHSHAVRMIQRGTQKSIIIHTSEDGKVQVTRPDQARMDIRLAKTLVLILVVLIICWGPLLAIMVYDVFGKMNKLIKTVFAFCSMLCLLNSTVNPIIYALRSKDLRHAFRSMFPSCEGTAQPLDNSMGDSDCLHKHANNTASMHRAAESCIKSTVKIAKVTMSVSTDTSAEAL
Cannabinoid receptor 1 (Rattus norvegicus), sequence (P20272 whole entry): as above

| SMILES | Ki (Cannabinoid receptor 1 [1]) [µM] | Krel [2] | Ki (Cannabinoid receptor 1 [3]) [µM] |
| --- | --- | --- | --- |
| CCCCCCCC[C@@H]1C[C@@H]1CCCCCCCCOC(CO)CO | > 50 | > 125000 | – |
| CCCCC/C=C\C/C=C\C/C=C\CCCCCOC(CO)CO | 13.9 | 3480 | – |
| CCCCCCCC/C=C\CCCCCCCCOC(CO)CO | 25.6 | 6400 | – |
| CCCCCC[C@@H]1C[C@@H]1C#CCCCCCCCCOC(CO)CO | > 50 | > 125000 | – |
| CCCCC/C=C\C/C=C\C/C=C\C/C=C\CCCCOCC(O)CO (stereo in doubt; 5b) | – | 625 | – |
| CCCCC/C=C\C/C=C\C/C=C\C/C=C\CCCCOCC(O)CO (stereo in doubt; 5a) [listing 1 of 2 here] | 5 | – | – |
| CCCCCCCC/C=C\CCCCCCCCCCCCOC(CO)CO | – | > 12500 | > 50 |
| CCCCC/C=C\C/C=C\C/C=C\C/C=C\CCCCOCC(O)CO (stereo in doubt; 5a) [listing 2 of 2 here] | – | 1250 | – |
| CCCCC/C=C\C/C=C\CCCCCCCCOC(CO)CO | 22.5 | 5620 | – |
| CC(C)=CCC/C(C)=C/CC/C(C)=C/COC(CO)CO | > 50 | > 12500 | – |
| CCCCCC/C=C/C#CCCCCCCCCOC(CO)CO | – | > 125000 | > 50 |
| CCCCCCCCCCCCCCCCOC(CO)CO | > 50 | > 12500 | – |
| CC(C)=CCC/C(C)=C/COC(CO)CO | > 50 | > 12500 | – |
| CC(C)=CCC/C(C)=C/COCC(O)CO (centres undefined) | > 50 | > 12500 | – |
| CCCCCCCCCCCCCCCCOCC(O)CO (centres undefined) | > 50 | > 12500 | – |
| CCCCCCCC[C@@H]1C[C@@H]1CCCCCCCCCCCCOC(CO)CO (single isomer, unassigned) | > 50 | > 125000 | – |
